Reference: patent US20110046187A1, “ASSESSING CONGESTIVE HEART RISK IN PATIENTS TREATED OR POTENTIALLY TO BE TREATED WITH A PEROXISOME-PROLIFERATOR-ACTIVATOR-RECEPTOR-GAMMA AGONIST OR A THIAZOLIDINEDIONE” (BG MEDICINE, INC., priority 2007, published 2011)
Counter-ions that a name gives are not always drawn.

Key:
Type in all cases: in vivo
[1] = tested on: Galectin-3 mRNA; assay: Transcriptional profiling (Affymetrix GeneChip) of Galectin-3 mRNA levels in mouse T2DM animal models (db/db and HFD); design: key to Direction & Significance, Galectin-3 mRNA: Significant difference between the Group A and Group B median values for Galectin-3 mRNA; NS: No Significant Difference based on statistical comparison of Galectin-3 mRNA values in Group A and Group B; details: for Direction & Significance, Galectin-3 mRNA / MFC (median fold change) Galectin-3 mRNA: drug/Disease (vehicle), Day 14; for MFC (median fold change) Galectin-3 mRNA: oral twice/day 14 days; for Effect on Gal-3 mRNA levels in adipose tissue, muscle or liver: mouse models of T2DM (text summary of Table 1)
[2] = tested on: BNP mRNA; assay: Transcriptional profiling (Affymetrix GeneChip) of BNP mRNA levels in mouse T2DM animal models (db/db and HFD); design: key to Direction & Significance, BNP mRNA: Significant difference between the Group A and Group B median values for BNP mRNA; NS: No Significant Difference based on statistical comparison of Galectin-3 mRNA values in Group A and Group B; details: drug/Disease (vehicle); for MFC (median fold change) BNP mRNA: oral twice/day 14 days; for Direction & Significance, BNP mRNA: Day 14
[3] = tested on: BNP mRNA; assay: BNP mRNA level in muscle, Clinical, Rosi/Placebo
[4] = Adipose, HFD-06 high fat diet mouse
[5] = Liver, HFD-06 high fat diet mouse
[6] = Muscle, HFD-06 high fat diet mouse
[7] = Adipose, HFD-07 high fat diet mouse
[8] = Liver, HFD-07 high fat diet mouse
[9] = Muscle, HFD-07 high fat diet mouse

Compound	Direction & Significance, Galectin-3 mRNA ([1]; Adipose, DB-07 db/db mouse)	MFC (median fold change) Galectin-3 mRNA ([1]; Adipose, DB-07 db/db mouse)	Direction & Significance, Galectin-3 mRNA [1, 4]	MFC (median fold change) Galectin-3 mRNA [1, 4]	Direction & Significance, Galectin-3 mRNA ([1]; Liver, DB-07 db/db mouse)	MFC (median fold change) Galectin-3 mRNA ([1]; Liver, DB-07 db/db mouse)	Direction & Significance, Galectin-3 mRNA [1, 5]	MFC (median fold change) Galectin-3 mRNA [1, 5]	Direction & Significance, Galectin-3 mRNA ([1]; Muscle, DB-07 db/db mouse)	MFC (median fold change) Galectin-3 mRNA ([1]; Muscle, DB-07 db/db mouse)	Direction & Significance, Galectin-3 mRNA [1, 6]	MFC (median fold change) Galectin-3 mRNA [1, 6]	Effect on Gal-3 mRNA levels in adipose tissue, muscle or liver [1]	MFC (median fold change) BNP mRNA ([2]; Adipose, DB-07 db/db mouse)	MFC (median fold change) BNP mRNA [2, 4]	Direction & Significance, BNP mRNA ([2]; Adipose, DB-07 db/db mouse)	Direction & Significance, BNP mRNA [2, 4]	MFC (median fold change) BNP mRNA ([2]; Liver, DB-07 db/db mouse)	MFC (median fold change) BNP mRNA [2, 5]	Direction & Significance, BNP mRNA ([2]; Liver, DB-07 db/db mouse)	also measured
COc1ccc(Cl)cc1C(=O)NCCc1ccc(S(=O)(=O)NC(=O)NC2CCCCC2)cc1 [Glyburide, glyburide]	Increase NS	1.10	Increase NS	1.04	Increase NS	1.01	Increase NS	1.02	Increase NS	1.19	Decrease NS	0.87	Neither glyburide nor metformin treatment of the mouse models of T2DM had any significant effect	1.02	1.16	Increase NS	Increase NS	0.85	0.93	Decrease NS	Direction & Significance, BNP mRNA [2, 5]: Decrease NS; MFC (median fold change) BNP mRNA ([2]; Muscle, DB-07 db/db mouse): 0.83; MFC (median fold change) BNP mRNA [2, 6]: 3.17; Direction & Significance, BNP mRNA ([2]; Muscle, DB-07 db/db mouse): Decrease NS; Direction & Significance, BNP mRNA [2, 6]: Increase NS
CN(C)C(=N)N=C(N)N [Metformin, metformin]	Increase NS	1.10	Increase NS	1.08	Increase NS	1.06	Increase NS	1.08	Decrease NS	0.90	Decrease NS	0.82	Neither glyburide nor metformin treatment of the mouse models of T2DM had any significant effect	0.87	0.67	Decrease NS	Decrease NS	0.88	1.03	Decrease NS	Direction & Significance, BNP mRNA [2, 5]: Increase NS; MFC (median fold change) BNP mRNA ([2]; Muscle, DB-07 db/db mouse): 1.09; MFC (median fold change) BNP mRNA [2, 6]: 2.17; Direction & Significance, BNP mRNA ([2]; Muscle, DB-07 db/db mouse): Increase NS; Direction & Significance, BNP mRNA [2, 6]: Increase NS
CN(CCOc1ccc(CC2SC(=O)NC2=O)cc1)c1ccccn1 (centres unmarked) [Rosi, rosiglitazone maleate]	–	–	–	–	–	–	–	–	–	–	–	–	–	–	–	–	–	–	–	–	Direction & Significance, Galectin-3 mRNA ([1]; Adipose, DB-06 db/db mouse): Signif; MFC (median fold change) Galectin-3 mRNA ([1]; Adipose, DB-06 db/db mouse): 0.55; Direction & Significance, Galectin-3 mRNA [1, 7]: Signif; MFC (median fold change) Galectin-3 mRNA [1, 7]: 0.64; Direction & Significance, Galectin-3 mRNA ([1]; Liver, DB-06 db/db mouse): Signif; MFC (median fold change) Galectin-3 mRNA ([1]; Liver, DB-06 db/db mouse): 1.33; MFC (median fold change) Galectin-3 mRNA [1, 8]: 1.07; Direction & Significance, Galectin-3 mRNA ([1]; Muscle, DB-06 db/db mouse): Signif; MFC (median fold change) Galectin-3 mRNA ([1]; Muscle, DB-06 db/db mouse): 0.87; MFC (median fold change) Galectin-3 mRNA [1, 9]: 0.80; MFC (median fold change) BNP mRNA ([2]; Adipose, DB-06 db/db mouse): 1.13; MFC (median fold change) BNP mRNA [2, 7]: 1.29; Direction & Significance, BNP mRNA [2, 7]: Signif; MFC (median fold change) BNP mRNA ([2]; Liver, DB-06 db/db mouse): 1.68; MFC (median fold change) BNP mRNA [2, 8]: 0.77; MFC (median fold change) BNP mRNA ([2]; Muscle, DB-06 db/db mouse): 0.58; MFC (median fold change) BNP mRNA [2, 9]: 1.40; MFC (median fold change) BNP mRNA [3]: 0.63
